Columns and labels:
Assay type in all cases: biochemical
[1] = target: T1, cathepsin B isolated from human liver (Homo sapiens, UniProt P07858); test: Cathepsin B kinetic fluorescence enzyme inhibition assay; details: selectivity ratio versus calpain I
T1 construct: cathepsin B—isolated from human liver; purchased Calbiochem 219362; host or cells: human liver (tissue isolate)
Method: (§1) The following solutions and buffers were employed: • HBS (for 40 ml): 800 μl M HEPES; 2.16 ml 100 mM KCl; 4.8 ml 1M NaCl; 3.59 ml 5% glucose; 60 μl μM MgSO4; 400 μl 100 mM Na pyruvate, 28.19 ml water; pH 7.2-7.5. • lysis buffer (for 20 ml): 400 μl M Tris pH 8.2; 2.74 ml 1M NaCl; 520 μl 0.5M EDTA; 2 ml 10% triton X-100; 0.8 ml (=1:25) CompletePlus (1 tablet/2 ml H2O); 200 μl 100 mM Pefabloc; 13.34 ml water, pH 8.2. • TBST (10×) (for 1 l): 100 mM Tris (12.1 g); 1.5M NaCl (87 g); 1% Tween 20 (10 g), adjusted to pH 8. I Enzyme Inhibition In Vitro: • Testing for blockade of the corresponding enzymic activities was carried out by means of kinetic fluorescence assays (excitation 390 nm, emission 460 nm). • Apparent Ki values were calculated from the experimentally determined IC50 values by the Cheng-Prussoff relation assuming a reversible competitive enzyme inhibition. The Km values of the substrates used under the assay conditions indicated above were: 90 μM (Z-Phe-Arg-AMC, cathepsin B), 10 μM (Z-Gly-Pro-Arg-AMC, cathepsin K), 2 μM (Z-Phe-Arg-AMC, cathepsin L), and 30 μM (Z-Val-Val-Arg-AMC, cathepsin S). • The indicated Ki values are averages of the inhibition constants calculated on the basis of 2 to 4 independent dose-effect plots.
(§2) The following assays were used: • 1. Calpain I: • 20 nM calpain-I—isolated from human erythrocytes (Calbiochem #208713), 100 μM Suc-Leu-Tyr-AMC (Bachem #1-1355) as substrate in buffer with 62 mM imidazole, 0.3 mM CaCl2, 0.10% CHAPS, 0.05% BSA, 1 mM DTT at pH 7.3 and room temperature. • 2. Cathepsin B: • 0.25 nM cathepsin B—isolated from human liver (Calbiochem #219362), 100 μM Z-Phe-Arg-AMC (Bachem #I-1160) as substrate 50 mM MES, 2 mM EDTA, 0.05% Brij 35, 2.5 mM L-cysteine, pH 6.0, room temperature. • 3. Cathepsin K: • 3 nM cathepsin K—activated from recombinant human procathepsin K from E. coli (Calbiochem #342001), 10 μM Z-Gly-Pro-Arg-AMC (Biomol #P-142) as substrate in 50 mM MES, 2 mM EDTA, 0.05% Brij 35, 2.5 mM L-cysteine, pH 6.0, room temperature. • 4. Cathepsin L: • 1 nM cathepsin L—isolated from human liver (Calbiochem #219402), 2 μM Z-Phe-Arg-AMC (Bachem #1-1160) as substrate in 50 mM MES, 2 mM EDTA, 0.05% Brij 35, 2.5 mM L-cysteine, pH 6.0, room temperature. • 5. Cathepsin S: • 0.5 nM recombinant human cathepsin S from E. coli (Calbiochem #219343), 20 μM Z-Val-Val-Arg-AMC (Bachem #1-1540) as substrate in 50 mM MES, 2 mM EDTA, 0.05% Brij 35, 2.5 mM L-cysteine, pH 6.0, room temperature. • The results of the in vitro determination are indicated in Table 1. The following abbreviations are used in Table 1: • The “Calpain activity” column, ++ stands for a calpain Ki (Ki(calpain)) of ≦40 nM and + means: 40 nM<Ki(Calpain)≦100 nM. • The “Sel. cat. B” column indicates the Ki(cathepsin B)/Ki(calpain) ratio. In this connection, ++ means a Ki(cathepsin B)/Ki(calpain) ratio of ≧30 and + means 10≦Ki(cathepsin B)/Ki(calpain)<30. • The “Sel. cat. K” column indicates the Ki(cathepsin K)/Ki(calpain) ratio. In this connection, ++ means a Ki(cathepsin K)/Ki(calpain) ratio of ≧30 and + means 10≦Ki(cathepsin K)/Ki(calpain)<30. • The “Sel. cat. L” column indicates the Ki(cathepsin L)/Ki(calpain) ratio. In this connection, ++ means a Ki(cathepsin L)/Ki(calpain) ratio of ≧50 and + means 30≦Ki(cathepsin L)/Ki(calpain)<50. • The “Sel. cat. S” column indicates the Ki(cathepsin S)/Ki(calpain) ratio. In this connection, ++ means a Ki(cathepsin S)/Ki(calpain) ratio of ≧100 and + means 50≦Ki(cathepsin S)/Ki(calpain)<100.

[2] = target: T2, cathepsin K activated from recombinant human procathepsin K (Homo sapiens, UniProt P43235); test: Cathepsin K kinetic fluorescence enzyme inhibition assay; details: selectivity ratio versus calpain I
T2 construct: purchased Calbiochem 342001; host or cells: E. coli
T2 sequence (P43235 115-329): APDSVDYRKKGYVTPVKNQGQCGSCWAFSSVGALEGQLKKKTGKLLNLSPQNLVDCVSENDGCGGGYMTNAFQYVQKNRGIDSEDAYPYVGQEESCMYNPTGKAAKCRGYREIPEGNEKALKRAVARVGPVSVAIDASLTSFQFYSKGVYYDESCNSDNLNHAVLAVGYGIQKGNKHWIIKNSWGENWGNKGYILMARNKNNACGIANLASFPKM
Method: as §1, §2

[3] = target: T3, cathepsin L isolated from human liver (Homo sapiens, UniProt P07711); test: Cathepsin L kinetic fluorescence enzyme inhibition assay; details: selectivity ratio versus calpain I
T3 construct: cathepsin L—isolated from human liver; purchased Calbiochem 219402; host or cells: human liver (tissue isolate)
In short: (§3)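 Cathepsin B (0.25 nM, human liver) with 100 μM Z-Phe-Arg-AMC; L (1 nM, human liver) with 2 μM Z-Phe-Arg-AMC; S (0.5 nM, recombinant) with 20 μM Z-Val-Val-Arg-AMC. pH 6.0 MES buffer, 2.5 mM L-cysteine, room temperature. Kinetic fluorescence (ex 390/em 460 nm); apparent Ki from IC50 by Cheng-Prusoff.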

[4] = target: T4, calpain-I isolated from human erythrocytes (Homo sapiens, UniProt P07384); test: Calpain I kinetic fluorescence enzyme inhibition assay; details: apparent Ki from IC50 by Cheng-Prussoff; average of 2 to 4 dose-effect plots
T4 construct: calpain-I—isolated from human erythrocytes; purchased Calbiochem 208713; host or cells: human erythrocytes (tissue isolate)
T4 sequence (P07384 1-714): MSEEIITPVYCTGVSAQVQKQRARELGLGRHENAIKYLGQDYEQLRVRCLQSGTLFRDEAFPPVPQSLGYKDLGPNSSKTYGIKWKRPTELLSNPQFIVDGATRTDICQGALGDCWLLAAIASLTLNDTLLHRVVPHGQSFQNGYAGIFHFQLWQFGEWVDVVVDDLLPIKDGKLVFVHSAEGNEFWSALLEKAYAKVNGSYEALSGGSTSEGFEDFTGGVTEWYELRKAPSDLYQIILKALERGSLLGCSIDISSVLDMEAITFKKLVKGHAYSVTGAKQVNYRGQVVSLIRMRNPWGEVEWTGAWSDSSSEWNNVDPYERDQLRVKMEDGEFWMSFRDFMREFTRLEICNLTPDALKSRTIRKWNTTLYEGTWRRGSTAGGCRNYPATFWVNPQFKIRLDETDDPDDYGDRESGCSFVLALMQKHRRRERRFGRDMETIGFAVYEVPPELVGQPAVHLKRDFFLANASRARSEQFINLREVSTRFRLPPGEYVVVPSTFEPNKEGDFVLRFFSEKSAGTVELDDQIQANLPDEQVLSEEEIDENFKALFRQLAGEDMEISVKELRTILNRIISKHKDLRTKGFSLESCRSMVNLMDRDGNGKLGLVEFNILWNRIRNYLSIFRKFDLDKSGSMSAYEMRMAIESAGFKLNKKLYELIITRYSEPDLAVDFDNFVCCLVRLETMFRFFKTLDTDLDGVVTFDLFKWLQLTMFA
T4 sequence (P04632 1-268 partner): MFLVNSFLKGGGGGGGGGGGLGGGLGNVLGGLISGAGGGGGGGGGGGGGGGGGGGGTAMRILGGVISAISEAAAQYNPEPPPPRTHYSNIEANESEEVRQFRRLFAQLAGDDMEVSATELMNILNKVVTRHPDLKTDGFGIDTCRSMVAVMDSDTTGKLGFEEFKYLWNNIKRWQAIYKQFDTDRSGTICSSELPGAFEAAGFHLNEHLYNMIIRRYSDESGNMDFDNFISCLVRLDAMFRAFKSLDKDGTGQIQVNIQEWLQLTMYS

[5] = target: T5, recombinant human cathepsin S (Homo sapiens, UniProt P25774); test: Cathepsin S kinetic fluorescence enzyme inhibition assay; details: selectivity ratio versus calpain I
T5 construct: purchased Calbiochem 219343; host or cells: E. coli
In short: as §3

T3 sequence (P07711 114-333): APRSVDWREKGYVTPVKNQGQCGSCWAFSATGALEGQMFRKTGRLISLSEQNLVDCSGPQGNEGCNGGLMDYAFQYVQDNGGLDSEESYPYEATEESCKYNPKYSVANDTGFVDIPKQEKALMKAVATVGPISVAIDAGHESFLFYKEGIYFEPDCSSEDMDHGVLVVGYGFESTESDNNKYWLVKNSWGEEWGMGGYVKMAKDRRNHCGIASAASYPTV
T5 sequence (P25774 115-331): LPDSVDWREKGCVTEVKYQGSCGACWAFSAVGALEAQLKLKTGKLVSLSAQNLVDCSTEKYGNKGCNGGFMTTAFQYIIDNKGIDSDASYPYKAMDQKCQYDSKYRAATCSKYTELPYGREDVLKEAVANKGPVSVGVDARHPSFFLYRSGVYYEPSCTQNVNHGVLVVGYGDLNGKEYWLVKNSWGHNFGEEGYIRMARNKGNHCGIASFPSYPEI

Row | Molecule | Ki [4] [nM] | Sel cat. B (Ki(cathepsin B)/Ki(calpain) ratio) [1] | Sel cat. K (Ki(cathepsin K)/Ki(calpain) ratio) [2] | Sel cat. L (Ki(cathepsin L)/Ki(calpain) ratio) [3] | Sel cat. S (Ki(cathepsin S)/Ki(calpain) ratio) [5]
1 | N#Cc1cnc(-n2ccc(-c3ccccc3)n2)c(C(=O)NC(Cc2ccccc2)C(=O)C(N)=O)c1 (stereo not shown) [Example 82, N-(3-Amino-1-benzyl-2,3-dioxopropyl)-5-cyano-2-(3-phenyl-1H-pyrazol-1-yl)nicotinamide] | 40 to 100 | ++ (Ki(cathepsin B)/Ki(calpain) ratio of ≧30) | ++ (Ki(cathepsin K)/Ki(calpain) ratio of ≧30) | ++ (Ki(cathepsin L)/Ki(calpain) ratio of ≧50) | 
2 | NC(=O)C(=O)C(Cc1ccc(OC(F)(F)F)cc1)NC(=O)c1cccnc1-n1ccc(-c2cccc(C(F)(F)F)c2)n1 (stereo not shown) [Example 134, N-[3-Amino-2,3-dioxo-1-({4-[(trifluoromethyl)oxy]phenyl}methyl)propyl]-2-{3-[3-(trifluoromethyl)phenyl]-1H-pyrazol-1-yl}pyridine-3-carboxamide] |  | ++ (Ki(cathepsin B)/Ki(calpain) ratio of ≧30) | ++ (Ki(cathepsin K)/Ki(calpain) ratio of ≧30) | + (30≦Ki(cathepsin L)/Ki(calpain)<50) | + (50≦Ki(cathepsin S)/Ki(calpain)<100)
3 | COc1ccc(OC)c(-c2ccn(-c3ncccc3C(=O)NC(Cc3ccccc3)C(=O)C(N)=O)n2)c1 (stereo not shown) [Example 151, N-[3-Amino-2,3-dioxo-1-(phenylmethyl)propyl]-2-{3-[2,5-bis(methyloxy)phenyl]-1H-pyrazol-1-yl}pyridine-3-carboxamide] | 40 to 100 | ++ (Ki(cathepsin B)/Ki(calpain) ratio of ≧30) | ++ (Ki(cathepsin K)/Ki(calpain) ratio of ≧30) | ++ (Ki(cathepsin L)/Ki(calpain) ratio of ≧50) | 
4 | N-{3-Amino-1-[(4-fluorophenyl)methyl]-2,3-dioxopropyl}-2-[3-(2-chloro-3-fluorophenyl)-1H-pyrazol-1-yl]pyridine-3-carboxamide [Example 154] |  | ++ (Ki(cathepsin B)/Ki(calpain) ratio of ≧30) | ++ (Ki(cathepsin K)/Ki(calpain) ratio of ≧30) | ++ (Ki(cathepsin L)/Ki(calpain) ratio of ≧50) | ++ (Ki(cathepsin S)/Ki(calpain) ratio of ≧100)

Continued, in another order:

Row | Ki [4] [nM] | Molecule | Sel cat. B (Ki(cathepsin B)/Ki(calpain) ratio) [1] | Sel cat. K (Ki(cathepsin K)/Ki(calpain) ratio) [2] | Sel cat. L (Ki(cathepsin L)/Ki(calpain) ratio) [3] | Sel cat. S (Ki(cathepsin S)/Ki(calpain) ratio) [5]
5 | ≤ 40 | NC(=O)C(=O)C(Cc1ccccc1)NC(=O)c1cc(Cl)cnc1-n1ccc(-c2ccccc2)n1 (stereo not shown) [Example 27, N-(3-Amino-1-benzyl-2,3-dioxopropyl)-5-chloro-2-(3-phenyl-1H-pyrazol-1-yl)nicotinamide] | ++ (Ki(cathepsin B)/Ki(calpain) ratio of ≧30) | + (10≦Ki(cathepsin K)/Ki(calpain)<30) | + (30≦Ki(cathepsin L)/Ki(calpain)<50) | 
6 | ≤ 40 | NC(=O)C(=O)C(Cc1ccccc1)NC(=O)c1cc(Cl)cnc1-n1ccc(-c2ccc(N3CCOCC3)cc2)n1 (stereo not shown) [Example 31, N-(3-Amino-1-benzyl-2,3-dioxopropyl)-5-chloro-2-[3-(4-morpholin-4-ylphenyl)-1H-pyrazol-1-yl]nicotinamide] | ++ (Ki(cathepsin B)/Ki(calpain) ratio of ≧30) | + (10≦Ki(cathepsin K)/Ki(calpain)<30) | + (30≦Ki(cathepsin L)/Ki(calpain)<50) | 
7 | ≤ 40 | NC(=O)C(=O)C(Cc1ccccc1)NC(=O)c1cccnc1-n1ccc(-c2cccc(N3CCCC3)c2)n1 (stereo not shown) [Example 74, N-(3-Amino-1-benzyl-2,3-dioxopropyl)-2-[3-(3-pyrrolidin-1-ylphenyl)-1H-pyrazol-1-yl]nicotinamide] | ++ (Ki(cathepsin B)/Ki(calpain) ratio of ≧30) | ++ (Ki(cathepsin K)/Ki(calpain) ratio of ≧30) |  | ++ (Ki(cathepsin S)/Ki(calpain) ratio of ≧100)

Source: patent US7728012B2, “Carboxamide compounds and their use as calpain inhibitors” (Abbott GmbH & Co. KG, priority 2006, dated 2010)
